Measurements from EPA's ToxValDB 9.5.
Several values for one entry are separate records, joined by “and”; a condition that tells them apart may be missing. Identical values can stand only once.

Columns and labels:
[1] = tested on: Rattus norvegicus; settings: inhalation; for LEL / NEL: Crl:CD(SD) BR; for LOAEL / NOAEL: Crl:CD BR
[2] = tested on: Mus musculus; settings: subchronic, duration: 90 days, inhalation, Crl:CD-1 (ICR) BR
[3] = tested on: Oryctolagus sp.; settings: duration: 12 days, inhalation, New Zealand
[4] = reproduction developmental, duration: 9 days, F, generation: P0, P0: Whole Body: Lethargic
[5] = subchronic, duration: 90 days, F, General Toxicity: Whole Body: Body Weight Change + General Toxicity: Whole Body: Clinical Observations + Hepatic: Liver: Alkaline …
[6] = subchronic, duration: 90 days, F, Nervous: Brain: Brain Weight, Absolute + Nervous: Brain: Brain Weight, Relative + Whole Body: Whole Body: Functional Observation Battery (…
[7] = subchronic, duration: 90 days, F, Liver: Alkaline Phosphatase (ALP), Blood
[8] = subchronic, duration: 90 days, M, General Toxicity: Whole Body: Body Weight Change + General Toxicity: Whole Body: Clinical Observations + Hepatic: Liver: Liver Weight, …
[9] = subchronic, duration: 90 days, M, Nervous: Brain: Brain Weight, Absolute + Nervous: Brain: Brain Weight, Relative + Whole Body: Whole Body: Functional Observation Battery (…
[10] = subchronic, duration: 90 days, M, Blood: Triglycerides (TRIG), Blood + Whole Body: Function Observation Battery (FOB)
[11] = F, General Toxicity: Whole Body: Body Weight Change + General Toxicity: Whole Body: Clinical Observations + General Toxicity: Whole Body: …
[12] = F, Nervous: Brain: Brain Weight, Absolute + Nervous: Brain: Brain Weight, Relative
[13] = M, Blood: Triglycerides (TRIG), Blood + Whole Body: Mortality
[14] = M, General Toxicity: Whole Body: Body Weight Change + General Toxicity: Whole Body: Clinical Observations + General Toxicity: Whole Body: …
[15] = M, Nervous: Brain: Brain Weight, Absolute + Nervous: Brain: Brain Weight, Relative
[16] = reproduction developmental, F, generation: P0, P0: Developmental: Uterus: Implantation + P0: Developmental: Uterus: Pre-Implantation Loss + P0: Developmental: Uterus: Resorptions, Mean/…
[17] = reproduction developmental, F, generation: P0, P0: Developmental: Uterus: Resorptions, Mean/Litter + P0: General Toxicity: Whole Body: Body Weight Change + P0: General Toxicity: Whole …
[18] = reproduction developmental, F, generation: P0, P0: Whole Body: Clinical Observations

FC(Cl)C(F)(F)F (stereo unspecified) [2-Chloro-1,1,1,2-tetrafluoroethane] was tested, and the LEL [1, 4] was 279000 mg/m3, the NEL [1, 4] was 55800 mg/m3 and the NEL ([1]; reproduction developmental, duration: 9 days, M/F, generation: P0, P0: Uterus: Fetuses, Dead + P0: Uterus: Fetuses, Live + P0: Whole Body: Body Weight, Fetal) was 279000 mg/m3. It also gave an NEL ([1]; short-term, duration: 4 weeks, F, Adrenal: Adrenal Gland Weight, Absolute + Adrenal: Adrenal Gland Weight, Relative + Bladder: Urinary Bladder Calculus + Bladder: Urinary …) of 279000 mg/m3, an NEL ([1]; short-term, duration: 4 weeks, M, Adrenal: Adrenal Gland Weight, Absolute + Adrenal: Adrenal Gland Weight, Relative + Blood: Abnormal Lymphocytes + Blood: Band Neutrophils + …) of 279000 mg/m3 and an LOAEL ([1]; subchronic, duration: 90 days, F, Cardiovascular: Heart: Heart Weight, Absolute + Cardiovascular: Heart: Heart Weight, Relative + Endocrine: Adrenal: Adrenal Gland Weight, …) of 83700 mg/m3. For the same compound, the LOAEL [1, 5] was 279000 mg/m3, the NOAEL [1, 5] was 83700 mg/m3 and the LOAEL [1, 6] was 83700 mg/m3. For the same compound, the NOAEL [1, 6] was 27900 mg/m3, the NEL ([1]; subchronic, duration: 90 days, F, Adrenal: Adrenal Gland Weight, Absolute + Adrenal: Adrenal Gland Weight, Relative + Blood: Hematology, Unspecified + Brain: Brain Weight, …) was 279000 mg/m3 and the LEL [1, 7] was 279000 mg/m3. It also gave an NEL [1, 7] of 83700 mg/m3, an LOAEL ([1]; subchronic, duration: 90 days, M, Cardiovascular: Heart: Heart Weight, Absolute + Cardiovascular: Heart: Heart Weight, Relative + Endocrine: Adrenal: Adrenal Gland Weight, …) of 83700 mg/m3 and an LOAEL [1, 8] of 279000 mg/m3. The NOAEL [1, 8] was 83700 mg/m3, the LOAEL [1, 9] was 83700 mg/m3 and the NOAEL [1, 9] was 27900 mg/m3. For the same compound, the NEL ([1]; subchronic, duration: 90 days, M, Adrenal: Adrenal Gland Weight, Absolute + Adrenal: Adrenal Gland Weight, Relative + Blood: Hematology, Unspecified + Brain: Brain Weight, …) was 279000 mg/m3, the LEL [1, 10] was 83700 mg/m3 and the NEL [1, 10] was 27900 mg/m3. For the same compound, the NEL ([2]; F, Adrenal: Adrenal Gland Weight, Absolute + Adrenal: Adrenal Gland Weight, Relative + Blood: Hematology, Unspecified + Brain: Brain Weight, …) was 279000 mg/m3, the LOAEL ([2]; F, Cardiovascular: Heart: Heart Weight, Absolute + Cardiovascular: Heart: Heart Weight, Relative + Endocrine: Adrenal: Adrenal Gland Weight, …) was 83700 mg/m3 and the LOAEL [2, 11] was 279000 mg/m3. For the same compound, the NOAEL [2, 11] was 83700 mg/m3, the LOAEL [2, 12] was 83700 mg/m3 and the NOAEL [2, 12] was 27900 mg/m3. It also gave an LEL ([2]; F, Whole Body: Mortality) of 27900 mg/m3, an NEL ([2]; M, Adrenal: Adrenal Gland Weight, Absolute + Adrenal: Adrenal Gland Weight, Relative + Blood: Hematology, Unspecified + Brain: Brain Weight, …) of 279000 mg/m3 and an LEL [2, 13] of 83700 mg/m3. It also gave an NEL [2, 13] of 27900 mg/m3, an LOAEL ([2]; M, Cardiovascular: Heart: Heart Weight, Absolute + Cardiovascular: Heart: Heart Weight, Relative + Endocrine: Adrenal: Adrenal Gland Weight, …) of 83700 mg/m3 and an LOAEL [2, 14] of 279000 mg/m3. For the same compound, the NOAEL [2, 14] was 83700 mg/m3, the LEL ([2]; M, Heart: Heart Weight, Relative + Whole Body: Body Weight Change) was 27900 mg/m3 and the LOAEL [2, 15] was 83700 mg/m3. The NOAEL [2, 15] was 27900 mg/m3, the NOAEL ([3]; developmental, M/F, generation: F1, F1: Developmental: Uterus: Dead Fetuses + F1: Developmental: Uterus: Fetuses, Live + F1: Developmental: Whole Body: Body Weight, Fetal + F1…) was 279000 mg/m3 and the NOAEL ([3]; developmental, M/F, generation: F1, F1: Developmental: Whole Body: External Abnormalities + F1: Developmental: Whole Body: Live Pups Born + F1: Developmental: Whole Body: Pup …) was 27900 mg/m3 and 83700 mg/m3. The NEL ([3]; developmental, M/F, generation: F1, F1: Uterus: Fetuses, Dead + F1: Uterus: Fetuses, Live + F1: Whole Body: Body Weight, Fetal + F1: Whole Body: External Abnormalities) was 279000 mg/m3, the NEL ([3]; developmental, M/F, generation: F1, F1: Whole Body: External Abnormalities + F1: Whole Body: Live Pups Born + F1: Whole Body: Pup Weight Relative to Litter + F1: Whole Body: …) was 279000 mg/m3 and the NOAEL ([3]; reproduction developmental, F, generation: P0, P0: Developmental: Uterus: Implantation + P0: Developmental: Uterus: Number of Viable Fetuses + P0: Developmental: Uterus: Pre-Implantation …) was 279000 mg/m3. The LOAEL [3, 16] was 83700 mg/m3, the NOAEL [3, 16] was 27900 mg/m3 and the NOAEL ([3]; reproduction developmental, F, generation: P0, P0: Developmental: Uterus: Implantation + P0: Developmental: Uterus: Pre-Implantation Loss + P0: Reproductive: Ovary: Corpora Lutea) was 279000 mg/m3. It also gave an LOAEL [3, 17] of 279000 mg/m3, an NOAEL [3, 17] of 83700 mg/m3 and an NEL ([3]; reproduction developmental, F, generation: P0, P0: Liver: Liver Weight, Absolute + P0: Liver: Liver Weight, Relative + P0: Ovary: Corpora Lutea + P0: Uterus: Implantation + P0: Uterus: …) of 279000 mg/m3. It also gave an NEL ([3]; reproduction developmental, F, generation: P0, P0: Ovary: Corpora Lutea + P0: Uterus: Implantation + P0: Uterus: Pre-Implantation Loss + P0: Uterus: Resorptions, Mean/Litter + P0: Whole …) of 279000 mg/m3, an LEL [3, 18] of 279000 mg/m3 and an NEL [3, 18] of 83700 mg/m3.
